Converted amounts (≈) assume the structure as drawn.
How the values were obtained:
Assay type in all cases: biochemical
[1] = biological target: T. reesei CBH I variant R268K/R411K (parent SEQ ID NO:2) (Trichoderma reesei, UniProt A0A024RXP8, R268K/R411K); experiment: 4-MUL assay, cellobiose inhibition, T. reesei CBH I R268K/R411K; conditions: read-out: % Activity in 4-MUL Assay (+/−Cellobiose), 250 mg/L cellobiose, (activity with cellobiose)/(activity without cellobiose)*100
Method: (§1) 4-Methylumbelliferyl Lactoside (4-MUL) Assay: This assay measures the activity of CBH I on the fluorogenic substrate 4-MUL (also known as MUL). Assays were run in a costar 96-well black bottom plate, where reactions were initiated by the addition of 4-MUL to enzyme in buffer (2 mM 4-MUL in 200 mM MES pH 6). Enzymatic rates were monitored by fluorescent readouts over five minutes on a SPECTRAMAX™ plate reader (ex/em 365/450 nm). Data in the linear range was used to calculate initial rates (Vo).
(§2) Cellobiose Tolerance Assays (or Cellobiose Inhibition Assays): Tolerance to cellobiose (or inhibition caused by cellobiose) was tested in two ways in the CBH I assays. A direct-dose tolerance method can be applied to all of the CBH I assays (i.e., 4-MUL, PASC, and/or bagasse assays), and entails the exogenous addition of a known amount of cellobiose into assay mixtures. A different indirect method entails the addition of an excess amount of β-glucosidase (BG) to PASC and bagasse assays (typically, 1 mg β-glucosidase/g solids loaded). […]
(§3) Cellobiose product tolerant substitutions were introduced into T. reesei CBH I (SEQ ID NO:2). A panel of variants with single and double alanine and lysine substitutions at R268 and R411 were expressed and analyzed. […]

[2] = test system: CBH I polypeptide BD29555, wild type, SEQ ID NO:1; experiment: Phosphoric acid swollen cellulose (PASC) assay, cellobiose inhibition, wild type BD29555; conditions: PASC substrate, FIG. 3
Method: (§4) Phosphoric Acid Swollen Cellulose (PASC) Assay: This assay measures the activity of CBH I using PASC as the substrate. During the assay, the concentration of PASC is monitored by a fluorescent signal derived from calcofluor binding to PASC (ex/em 365/440 nm). The assay is initiated by mixing enzyme (15 μl) and reaction buffer (85 μl of 0.2% PASC, 200 mM MES, pH 6), and then incubating at 35° C. while shaking at 225 RPM. After 2 hours, one reaction volume of calcofluor stop solution (100 μg/ml in 500 mM glycine pH 10) is added and fluorescence read-outs obtained (ex/em 365/440 nm).
as §2, with “loaded). BG will enzymatically hydrolyze the cellobiose generated during these assays; therefore, CBH I activity in the presence of BG can be taken as a measure of activity in the absence of cellobiose.” for “loaded).”

[3] = biological target: T. reesei CBH I variant R268A/R411A (parent SEQ ID NO:2) (Trichoderma reesei, UniProt A0A024RXP8, R268A/R411A); experiment: 4-MUL assay, cellobiose inhibition, T. reesei CBH I R268A/R411A; conditions: read-out: % Activity in 4-MUL Assay (+/−Cellobiose), 250 mg/L cellobiose, (activity with cellobiose)/(activity without cellobiose)*100
Chain of T. reesei CBH I variant R268A/R411A (parent SEQ ID NO:2) (A0A024RXP8 18-514 R268A/R411A): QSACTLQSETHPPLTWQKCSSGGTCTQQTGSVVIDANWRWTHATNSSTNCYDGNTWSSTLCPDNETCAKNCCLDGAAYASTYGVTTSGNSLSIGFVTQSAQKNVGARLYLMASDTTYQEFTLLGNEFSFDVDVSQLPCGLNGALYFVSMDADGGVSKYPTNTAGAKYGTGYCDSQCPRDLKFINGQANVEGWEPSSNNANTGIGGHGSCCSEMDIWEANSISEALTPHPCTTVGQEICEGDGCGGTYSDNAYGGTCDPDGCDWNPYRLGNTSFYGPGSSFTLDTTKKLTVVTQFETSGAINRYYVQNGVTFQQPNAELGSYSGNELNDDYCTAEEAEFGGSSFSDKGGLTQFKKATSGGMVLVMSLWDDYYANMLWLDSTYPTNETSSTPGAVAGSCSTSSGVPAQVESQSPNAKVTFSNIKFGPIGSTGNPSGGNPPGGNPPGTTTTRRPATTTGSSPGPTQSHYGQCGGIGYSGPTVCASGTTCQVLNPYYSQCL
Method: as §1, §2, §3

[4] = biological target: T1, T. reesei CBH I, wild type, SEQ ID NO:2 (Trichoderma reesei, UniProt P62694, INS458P/R459P); experiment: PASC assay, cellobiose inhibition, wild type T. reesei CBH I
T1 sequence (P62694 other isoform, or with tags, fused parts or gaps INS458P/R459P): as the sequence (A0A024RXP8 18-514 R268A/R411A) above, with A251R, A394R counted along it
Method: as §4
as §2, with “loaded). BG will enzymatically hydrolyze the cellobiose generated during these assays; therefore, CBH I activity in the presence of BG can be taken as a measure of activity in the absence of cellobiose.” for “loaded).”

[5] = test system: BD29555 CBH I variant R273A (parent SEQ ID NO:1); experiment: Library screening, 4-MUL assay in presence and absence of cellobiose, BD29555 R273A; conditions: library screen, 250 g/L cellobiose (so in the source), gluconolactone present
Method: as §1
as §2, with “mixtures.” for “mixtures. A different indirect method entails the addition of an excess amount of β-glucosidase (BG) to PASC and bagasse assays (typically, 1 mg β-glucosidase/g solids loaded).”
(§5) The wild type CBH I polypeptide BD29555 was mutagenized to identify variants with improved product tolerance. […] This product-release-site library was designed based on residues directly interacting with the cellobiose product in an attempt to identify variants with weakened interactions with cellobiose from which the product would be released more readily than the wild type enzyme. […]

[6] = test system: BD29555 CBH I variant R273Q (parent SEQ ID NO:1); experiment: Library screening, 4-MUL assay in presence and absence of cellobiose, BD29555 R273Q; conditions: library screen, 250 g/L cellobiose (so in the source), gluconolactone present
Method: as §1
as §2, with “mixtures.” for “mixtures. A different indirect method entails the addition of an excess amount of β-glucosidase (BG) to PASC and bagasse assays (typically, 1 mg β-glucosidase/g solids loaded).”
as §5

[7] = biological target: T1, T. reesei CBH I, wild type, SEQ ID NO:2; experiment: 4-MUL assay, cellobiose inhibition, wild type T. reesei CBH I; conditions: read-out: % Activity in 4-MUL Assay (+/−Cellobiose)
Method: as §1, §2, §3

[8] = test system: CBH I polypeptide BD29555, wild type, SEQ ID NO:1; experiment: 4-Methylumbelliferyl lactoside (4-MUL) assay, cellobiose inhibition, wild type BD29555
Method: as §1, §2
(§6) Cellobiose dose response curves of the wild-type and R273K/R422K variant of BD29555 were obtained during the 4-MUL assay. Enzyme rates (Vo) were measured in the presence of different concentrations of cellobiose (200 mM MES pH 6, 25° C.). Rates were measured in quadruplicate.

[9] = biological target: T. reesei CBH I variant R268K/R411A (parent SEQ ID NO:2) (Trichoderma reesei, UniProt A0A024RXP8, R268K/R411A); experiment: 4-MUL assay, cellobiose inhibition, T. reesei CBH I R268K/R411A; conditions: read-out: % Activity in 4-MUL Assay (+/−Cellobiose), 250 mg/L cellobiose, (activity with cellobiose)/(activity without cellobiose)*100
Chain of T. reesei CBH I variant R268K/R411A (parent SEQ ID NO:2) (A0A024RXP8 18-514 R268K/R411A): as the sequence (A0A024RXP8 18-514 R268A/R411A) above, with A251K counted along it
Method: as §1, §2, §3

[10] = test system: BD29555 CBH I variant R273K/R422K (R268K/R411K by T. reesei numbering; parent SEQ ID NO:1; full length SEQ ID NO:301, mature SEQ ID NO:302); experiment: 4-MUL assay, cellobiose inhibition, BD29555 R273K/R422K variant
Method: as §1
(§7) Cellobiose Tolerance Assays (or Cellobiose Inhibition Assays): Tolerance to cellobiose (or inhibition caused by cellobiose) was tested in two ways in the CBH I assays. A direct-dose tolerance method can be applied to all of the CBH I assays (i.e., 4-MUL, PASC, and/or bagasse assays), and entails the exogenous addition of a known amount of cellobiose into assay mixtures. A different indirect method entails the addition of an excess amount of β-glucosidase (BG) to PASC and bagasse assays (typically, 1 mg β-glucosidase/g solids loaded). BG will enzymatically hydrolyze the cellobiose generated during these assays; therefore, CBH I activity in the presence of BG can be taken as a measure of activity in the absence of cellobiose. Furthermore, when activity in the presence and absence of BG are similar, this indicates tolerance to cellobiose.
as §5, §6

[11] = test system: BD29555 CBH I variant R273K/R422K (parent SEQ ID NO:1; full length SEQ ID NO:301, mature SEQ ID NO:302); experiment: PASC assay, cellobiose inhibition, BD29555 R273K/R422K variant; conditions: 10 g/L cellobiose, PASC substrate, FIG. 3
Method: as §4
as §7, with “Furthermore, when activity in the presence and absence of BG are similar, this indicates tolerance to cellobiose.” left out

[12] = test system: BD29555 CBH I variant R273K/Y274Q/D281K/Y410H/P411G/R422K (parent SEQ ID NO:1); experiment: 4-MUL assay, cellobiose inhibition, BD29555 R273K/Y274Q/D281K/Y410H/P411G/R422K variant; conditions: 250 mg/L cellobiose, (activity with cellobiose)/(activity without cellobiose)*100
Method: as §1
as §7, with “to cellobiose. […]” for “to cellobiose.”

[13] = biological target: T. reesei CBH I variant R268A/R411K (parent SEQ ID NO:2) (Trichoderma reesei, UniProt A0A024RXP8, R268A/R411K); experiment: 4-MUL assay, cellobiose inhibition, T. reesei CBH I R268A/R411K; conditions: read-out: % Activity in 4-MUL Assay (+/−Cellobiose), 250 mg/L cellobiose, (activity with cellobiose)/(activity without cellobiose)*100
Chain of T. reesei CBH I variant R268A/R411K (parent SEQ ID NO:2) (A0A024RXP8 18-514 R268A/R411K): as the sequence (A0A024RXP8 18-514 R268A/R411A) above, with A394K counted along it
Method: as §1, §2, §3

Chain of T. reesei CBH I variant R268K/R411K (parent SEQ ID NO:2) (A0A024RXP8 18-514 R268K/R411K): as the sequence (A0A024RXP8 18-514 R268A/R411A) above, with A251K, A394K counted along it

OC[C@H]1O[C@@H](O[C@H]2[C@H](O)[C@@H](O)C(O)O[C@@H]2CO)[C@H](O)[C@@H](O)[C@@H]1O (stereo partly drawn) [cellobiose]
activity at 250 µg/mL [1]: > 90%
IC50 [2]: 2200 µg/mL (≈ 6.43 mM)
cellobiose concentration at which inhibition starts [2]: around 1 g/L
activity at 250 µg/mL [3]: > 90%
IC50 [4]: 8.76 mM
cellobiose concentration at which inhibition starts ([4]; PASC substrate, FIG. 3): around 1 g/L
product tolerance [5]: enhanced product tolerance
product tolerance [6]: enhanced product tolerance
activity at 250 µg/mL [7]: 23%
% Activity in 4-MUL Assay (+/−Cellobiose) ([8]; 250 mg/L cellobiose, (activity with cellobiose)/(activity without cellobiose)*100, wild type BD29555): 25%
half maximal inhibitory concentration (IC50 value) ([8]; 4-MUL substrate, 200 mM MES pH 6, 25° C., rates in quadruplicate, FIG. 1A): 60 µg/mL
activity at 250 µg/mL [9]: > 90%
% Activity in 4-MUL Assay (+/−Cellobiose) ([10]; 250 mg/L cellobiose, (activity with cellobiose)/(activity without cellobiose)*100, R273K/R422K): 95%
tolerance to cellobiose (dose response) ([10]; 4-MUL substrate, 200 mM MES pH 6, 25° C., FIG. 1B): tolerant to cellobiose up to 250 mg/L
product tolerance ([10]; library screen, 4-MUL assay, 250 g/L cellobiose (so in the source), gluconolactone present): enhanced product tolerance
inhibition by cellobiose [11]: little inhibition
% Activity in 4-MUL Assay (+/−Cellobiose) [12]: 78%
activity at 250 µg/mL [13]: > 90%

Reference: patent US9096871B2, “Variant CBH I polypeptides with reduced product inhibition” (BP Corporation North America Inc., priority 2010, dated 2015)
